In the series the test system is toxin-induced cell death in RAW264.7 cells. As to conditions: mouse.

Molecules are shown by their SMILES. Bounds are passed on as bounds.

As to `CC(=O)N[C@@H](C)C(=O)N[C@@H](Cc1c[nH]c2ccccc12)C(=O)N1CCC[C@H]1C(=O)N[C@@H](CC(C)C)C(=O)N[C@@H](CO)C(=O)N[C@@H](CCC(N)=O)C(=O)N[C@@H](CC(C)C)C(=O)N[C@@H](CC(=O)O)C(=O)N[C@@H](Cc1c[nH]cn1)C(=O)N[C@@H](CO)C(=O)N[C@@H](Cc1ccc(O)cc1)C(=O)N[C@@H](CC(N)=O)C(=O)N[C@@H](CS)C(N)=O` [corresponding monovalent peptide], the IC50 was more than 2000 µM.

What is called IC50 is the concentration at which inhibition is half-maximal.

(Values after patent US20090054317A1 (priority 2006, published 2009).)
